Assay results: PubChem BioAssay AID2060325 (Molecular Pharmacology Branch, DTP, NCI, 2025)
Several values for one entry are separate records, joined by “and”; a condition that tells them apart may be missing. Equal entries are not always repeated.

System: SK-OV-3 multi-cell spheroids, viability
Test: Anticancer human tumor SK-OV-3 cell line growth inhibition [IpAb];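 on viability, T/C: viability read after seven days of drug exposure; percent of DMSO vehicle control luminescence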
Conditions: for viability, T/C: stronger effect = lower value
Source text: Combinatorial screen of targeted agents with ipatasertib and abemaciclib in multi-cell type tumor spheroids
A high-throughput screen of multi-cell type tumor spheroids was designed to identify active combinations of targeted small molecules and ipatasertib or abemaciclib. Complex spheroids include a stromal component modeled by human endothelial cells (HUVEC) and fibroblasts modeled by human mesenchymal stem cells (MSCs). The concentration ranges selected for each drug and investigational agent were based upon clinically achievable concentrations if the clinical Cmax of the agent was known.
Compounds. The drugs and investigational agents: ipatasertib (NSC767898), abemaciclib(NSC768073), selumetinib (NSC741078), trametinib (758246), adavosertib (NSC754352), everolimus (NSC733504), sapanisertib (NSC764658), vemurafenib (NSC761431), venetoclax (NSC766270), copanlisib (NSC809693), apelisib (NSC765974), palbociblib (NSC758247), vemurafenib (NSC761431), dabrafenib (NSC764134), ravoxertinib (NSC781343), BMS-387032 (NSC767048), sotorasib (NSC818433), talazoparib (NSC767125) and afursertib (NSC778305), were obtained from the National Cancer Institute (NCI) Developmental Therapeutics Program Chemical Repository. The FDA-approved anticancer drug set is available from the NCI Developmental Therapeutics Program. […] The stock solutions were prepared in dimethyl sulfoxide (DMSO, Sigma-Aldrich, St. Louis, MO, cat. D2650) at 800-fold the tested concentration and stored at -70 degrees C prior to their use. All drugs and investigational agents were tested over a range starting from a high concentration at or near the clinical Cmax and decreasing in half-log increments. If the clinical Cmax for an agent had not been determined, the highest concentration tested was 10 microM.
NCI60 Cell Culture. NCI60 cell lines were obtained from the NCI Developmental Therapeutics Program Tumor Repository. For each lot of cells, the Repository performed Applied Biosystems AmpFLSTR Identifiler testing with PCR amplification to confirm consistency with the published Identifier STR profile for each cell line. Cells were kept in continuous culture for no more than 20 passages. The optimal seeding densities for each of the cell lines at each time point assessed were determined prior to performing the concentration response studies. Briefly, the NCI60 human tumor lines were grown as monolayers in RPMI 1640 medium supplemented with 10% FBS and 2 mmol/L L-glutamine.
An additional 9 lines were from the NCI60 cell line panel including MDA-MB-231 breast carcinoma, MDA-MB-468 breast carcinoma, MCF7 breast carcinoma, Hs578T breast carcinoma, MALME-3M melanoma, SK-MEL-2 melanoma, SK-OV-3 ovarian carcinoma, DU-145 prostate carcinoma, PC-3 prostate carcinoma, all cell lines along with major genetic alterations are listed on Table 2. Pooled donor human umbilical vein endothelial cells (HUVEC, Lonza, cat. CC-2519) and human mesenchymal stem cells (hMSC, Lonza, cat. PT-2501) were purchased from Lonza (Walkersville, MD).
PDMR cell lines were grown in complete medium (DC medium): Dulbecco's modified Eagle's medium (DMEM)/F12 supplemented with 5% fetal bovine serum (FBS), 2 mM L-glutamine, 100 U/mL penicillin and 100 µg/ml streptomycin, 0.4 µg/ml hydrocortisone, 10 ng/ml epidermal growth factor (EGF) recombinant human protein, 24 µg/mL adenine, and 0.1 mg/mL primocin. During culture from frozen stock vials, PDMR cells were cultured in the same medium containing 10 µM Y-27632 (see Table 3). The PDCs were cultured in complete DMEM/F12 media without 10 microM Y-27632 dihydrochloride for at least two passages prior to the screen. The pooled donor HUVEC and hMSC were cultured in endothelial cell growth medium 2 (PromoCell, Heidelberg, Germany, cat. C-22011) and mesenchymal stem cell growth medium 2 (PromoCell, cat. C-28009), respectively. For all experiments, HUVEC and hMSC were used at passages </=5.
[…]

[1] = curve of first compound, second compound 0.1 µM
[2] = curve of first compound, second compound 0.316 µM
[3] = curve of first compound, second compound 1 µM
[4] = second compound 0.1 µM, first compound 0.00949 µM
[5] = second compound 0.1 µM, first compound 0.03 µM
[6] = second compound 0.1 µM, first compound 0.0949 µM
[7] = second compound 0.1 µM, first compound 0.3 µM
[8] = second compound 0.316 µM, first compound 0.00949 µM
[9] = second compound 0.316 µM, first compound 0.03 µM
[10] = second compound 0.316 µM, first compound 0.0949 µM
[11] = second compound 0.316 µM, first compound 0.3 µM
[12] = second compound 1 µM, first compound 0.00949 µM
[13] = second compound 1 µM, first compound 0.03 µM
[14] = second compound 1 µM, first compound 0.0949 µM
[15] = second compound 1 µM, first compound 0.3 µM

CC(=O)c1c(C)c2cnc(Nc3ccc(N4CCNCC4)cn3)nc2n(C2CCCC2)c1=O + CCN1CCN(Cc2ccc(Nc3ncc(F)c(-c4cc(F)c5nc(C)n(C(C)C)c5c4)n3)nc2)CC1
IC50 (curve of first compound, second compound 0.01 µM): 274 nM
IC50 (curve of first compound, second compound 0.0316 µM): 63.1 nM
IC50 [1]: 8.82 nM
IC50 [2]: 2.61 nM
IC50 [3]: < 0.949 nM
viability, T/C (second compound 0.01 µM, first compound 0.000949 µM): 79.7%
viability, T/C (second compound 0.01 µM, first compound 0.003 µM): 77.4%
viability, T/C (second compound 0.01 µM, first compound 0.00949 µM): 66%
viability, T/C (second compound 0.01 µM, first compound 0.03 µM): 57.5%
viability, T/C (second compound 0.01 µM, first compound 0.0949 µM): 53.3%
viability, T/C (second compound 0.01 µM, first compound 0.3 µM): 48.9%
viability, T/C (second compound 0.0316 µM, first compound 0.000949 µM): 68%
viability, T/C (second compound 0.0316 µM, first compound 0.003 µM): 62.5%
viability, T/C (second compound 0.0316 µM, first compound 0.00949 µM): 56.5%
viability, T/C (second compound 0.0316 µM, first compound 0.03 µM): 50.9%
viability, T/C (second compound 0.0316 µM, first compound 0.0949 µM): 49.1%
viability, T/C (second compound 0.0316 µM, first compound 0.3 µM): 46.7%
viability, T/C (second compound 0.1 µM, first compound 0.000949 µM): 57.7%
viability, T/C (second compound 0.1 µM, first compound 0.003 µM): 52.3%
viability, T/C [4]: 51.8%
viability, T/C [5]: 46.9%
viability, T/C [6]: 40.5%
viability, T/C [7]: 42%
viability, T/C (second compound 0.316 µM, first compound 0.000949 µM): 51.5%
viability, T/C (second compound 0.316 µM, first compound 0.003 µM): 49%
viability, T/C [8]: 51%
viability, T/C [9]: 45.6%
viability, T/C [10]: 45.5%
viability, T/C [11]: 46.8%
viability, T/C (second compound 1 µM, first compound 0.000949 µM): 41.4%
viability, T/C (second compound 1 µM, first compound 0.003 µM): 43.1%
viability, T/C [12]: 42.3%
viability, T/C [13]: 35.9%
viability, T/C [14]: 39.2%
viability, T/C [15]: 42.4%

Cn1cnc2c(F)c(Nc3ccc(Br)cc3Cl)c(C(=O)NOCCO)cc21 + CC(C)NCC(C(=O)N1CCN(c2ncnc3c2C(C)CC3O)CC1)c1ccc(Cl)cc1
IC50 [1]: 164 nM
IC50 [2]: < 9.49 nM
IC50 [3]: < 9.49 nM
IC50 (curve of first compound, second compound 3.16 µM): < 9.49 nM
IC50 (curve of first compound, second compound 10 µM): < 9.49 nM
viability, T/C [4]: 61.9%
viability, T/C [5]: 62%
viability, T/C [6]: 49.1%
viability, T/C [7]: 48%
viability, T/C (second compound 0.1 µM, first compound 0.949 µM): 35.8%
viability, T/C (second compound 0.1 µM, first compound 3 µM): 19.7%
viability, T/C [8]: 33.9%
viability, T/C [9]: 30.4%
viability, T/C [10]: 25.8%
viability, T/C [11]: 21.6%
viability, T/C (second compound 0.316 µM, first compound 0.949 µM): 18.6%
viability, T/C (second compound 0.316 µM, first compound 3 µM): 10.3%
viability, T/C [12]: 19.6%
viability, T/C [13]: 16.7%
viability, T/C [14]: 15.2%
viability, T/C [15]: 11.8%
viability, T/C (second compound 1 µM, first compound 0.949 µM): 9.36%
viability, T/C (second compound 1 µM, first compound 3 µM): 4.86%
viability, T/C (second compound 3.16 µM, first compound 0.00949 µM): 13.5%
viability, T/C (second compound 3.16 µM, first compound 0.03 µM): 11.4%
viability, T/C (second compound 3.16 µM, first compound 0.0949 µM): 9.44%
viability, T/C (second compound 3.16 µM, first compound 0.3 µM): 9.1%
viability, T/C (second compound 3.16 µM, first compound 0.949 µM): 6.43%
viability, T/C (second compound 3.16 µM, first compound 3 µM): 3.45%
viability, T/C (second compound 10 µM, first compound 0.00949 µM): 6.91%
viability, T/C (second compound 10 µM, first compound 0.03 µM): 7.44%
viability, T/C (second compound 10 µM, first compound 0.0949 µM): 7.64%
viability, T/C (second compound 10 µM, first compound 0.3 µM): 5.26%
viability, T/C (second compound 10 µM, first compound 0.949 µM): 4.92%
viability, T/C (second compound 10 µM, first compound 3 µM): 2.28%

CC(C)(C)c1cnc(CSc2cnc(NC(=O)C3CCNCC3)s2)o1
viability, T/C (compound 0.00949 µM): 111% and 106%
viability, T/C (compound 0.03 µM): 119% and 113%
viability, T/C (compound 0.0949 µM): 120% and 117%
viability, T/C (compound 0.3 µM): 14.5% and 23.1%
viability, T/C (compound 0.949 µM): 0.98% and 1.33%
viability, T/C (compound 3 µM): 0.95% and 1.2%
IC50 (curve of compound): 189 nM and 212 nM
